The procedure of this data set:
The sample was tested by GC (carrier gas: N2) and HPLC (Column: Waters Xselect HSS T3 (150 mm*4.6 mm, 3.5 um) P/N: 186004786; mobile phase 0.05% TFA in water, ACN:MeOH=1:1, v/v; Flow: 1 ml/min; Temperature: 30° C.).

SMILES strings stand for the structures.

Regarding `C1COC2(CC3(CCNCC3)C2)OC1.Cl` [1,5-dioxa-11-azadispiro[5.1.5.1]tetradecane hydrogen chloride], the “storage stability (result in words)” value is reported as “stable enough”. Also, the “Product, Impurity profile (RRT, Area %), RRT 1.00” value (stored at 2-8° C. for 3.5 months, double layered LDPE bag with desiccant inside heat-sealed aluminum foil bag, GC and HPLC) stood at 99.90 Area %.

Source of the values: patent US20250320207A1, “Ketal Protected Intermediate for Sonrotoclax and Preparation Method Thereof” (priority 2022, published 2025).
